Source: US8227453B2, “Pharmaceutical formulations and uses thereof in the treatment of female sexual dysfunction” (Emotional Brain B.V., priority 2004, dated 2012)
“Also recorded” adds a separate entry of the source.

Legend:
[1] = typical value; cited from earlier work
[2] = tested on: women suffering from Female Sexual Dysfunction; experiment: Sexual desire, genital sensations and subjective sexual arousal in women with FSD; format: in vivo, human
Excerpt: Attentional engagement is an important function for normal human sexuality.

women suffering from FSD [3] = experiment: Vaginal Pulse Amplitude (VPA) response to erotic film in women with FSD, placebo controlled cross-over; format: in vivo, human; conditions: for Vaginal Pulse Amplitude during exposure to erotic stimuli (vaginal arousability) compared with placebo: testosterone 0.5 mg sublingual, Vardenafil 10 mg, four hours after medication; for increase in VPA between neutral and erotic films, before medication (trial 1) versus after medication (trial 4): within drug condition
Excerpt: Fourteen women with a heterosexual orientation (mean age: 40.6 years; sd: 10.4; premenopausal n=8, postmenopausal n=6) who have been experiencing FSD (i.e., low sexual desire, low sexual arousal or decreased orgasm potency) for at least six months prior to study entry, participated in this study. Subjects in fertile age used contraceptives (IUDs, sterilization, oral contraceptives except contraceptives containing anti-androgens). A pregnancy test was part of the procedure. Subjects were interviewed and examined by a gynecologist to exclude pregnancy or breast feeding, vaginal infections, major operations to the vagina and/or vulva or unexplained gynecological complaints. […] Cardiovascular condition was tested and ECG was checked for significant abnormalities. Standard blood chemistry and hematology tests were performed. […] Subjects could not make appointments during their period of menstruation.
Each subject underwent the four different drug treatments (i.e., PDE5 inhibitor, testosterone, PDE5 inhibitor+testosterone and placebo) at four separate experimental days. The four experimental days were separated by at least a three-day period.
During each day of drug manipulation, subjects underwent the following measurements: • −1:00 hours: Emotional Stroop Task • −0:15 hours: Trial 1 • 0:00 hours: Intake drugs • 0:05 hours: Trial 2 • 2:45 hours: Trial 3 • 4:15 hours: Trial 4
Each day started with a physical examination (measurements of vital signs, blood pressure, heart rate, temperature and respiration rate). Blood samples (8 ml) were taken for hormone analyses. Subjects then were seated in the sound attenuated, dimly lit experimental room. In order to make this room less “sterile,” geographic posters were hung on the walls and an air perfumer was placed behind the subjects. The subjects then executed the emotional Stroop task (15 minutes). The experimenter brought the vaginal probe and the subject was left alone in the room to insert the probe. The subject was instructed to sit as quietly as possible while viewing the film fragments. A ten-minute neutral fragment was followed by a five-minute erotic film fragment. After these baseline measurements, the subjects took medication: testosterone (0.5 mg or placebo) sublingually, with cyclodextrins as carrier and Vardenafil (10 mg or placebo) hidden in a capsule. The medication was followed by another set of neutral (five minutes) and erotic (five minutes) film fragments. The subjects removed the vaginal probe and were taken to a waiting room for a pause of two hours. During this pause, they could consume their lunch. Unlimited coffee and tea were available. This pause was followed by a third set of neutral (five minutes) and erotic (five minutes) film fragments.
Again subjects had to wait for two hours so that the last VPA measurement was taken four hours after medication. This last film-trial (neutral, erotic film fragments) was followed by a second presentation of the emotional Stroop. The experimental day ended with a short physical examination including drawing of a blood sample (8 ml for hormone analyses) and collection of AE and SAE.
During the testosterone condition, one subject became nauseated watching the erotic film and decided not to participate further that day. For the psychophysiological evaluation, the VPA (Vaginal Pulse Amplitude) is used. The VPA reflects phasic changes in the blood volume corresponding with each heartbeat; higher levels indicate higher levels of blood flow. The dependent variable used is the amplitude of the pulse wave. Before the mean VPA was calculated, the raw signal (sample rate was 20 Hz) was digitally bandpass filtered with a Butterworth filter (−3 dB cutoff frequency range 0.7-1.5 Hz; 40 dB down/octave). Movement artifacts were detected by visual inspection of the signal and removed manually. Hereafter, the amplitude was measured as the distance between the top and bottom of a pulse wave. […]

[4] = tested on: sexually functional women; conditions: cited from earlier work
[5] = tested on: hypogonadotropic hypogonadal females; experiment: Vaginal responsiveness during oral testosterone substitution; format: in vivo, human; conditions: dosed each morning
Method: An important aspect of sexual motivation is physiological sexual responding. […] In both studies, subjects received testosterone each morning, but patients in the first experiment were tested in the afternoon and patients in the second experiment in the morning. The different outcomes on physiological responding between these experiments may be caused by a time-dependent effect of testosterone on vaginal arousal.

women suffering from FSD [6] = tested on: women suffering from FSD
Excerpt: An unmasked and a masked version of the Emotional Stroop Task comparing color-naming latencies on neutral and erotic words were used. In both the unmasked and the masked condition, eight erotic and neutral words are presented in different colors (i.e., red, green, blue and yellow). An extra set of stimuli consisting of letter strings was used for practice trials. Subjects were instructed to ignore the content of the words and to name the color of the words as quickly as possible (in the masked condition, the color of the mask has to be named). Each trial consisted of a fixation point which is shown for 750 ms, followed by the target stimulus (the colored neutral or erotic word). In the masked condition, the word picture is presented for about 24 ms and then masked by randomly cut, reassembled letters in the same color. A microphone connected to a voice-level detector was placed in front of the subject. Initiation of vocal response was registered by the computer's clock and terminated the target presentation (with a no-response maximum of 3000 ms). Thirty-two neutral words and thirty-two erotic words were presented blocked. The same words were used for each test, however, the sequence of words and colors differed all eight times this task was used.
To test for associations with changes in attentional processes, we used the StroopRT as the measurement point. StroopRT is the difference in mean reaction times on color naming of the neutral and the sexual words.

[7] = tested on: healthy sexually functional women; design: species or system human; conditions: in vivo
Method: In a recently conducted experiment (not published) in healthy sexually functional women, we used a delayed measurement design in which subjects ingested one dosage of testosterone (0.5 mg sublingual) or placebo and after four hours, underwent fMRI while watching neutral and erotic videos. Hereafter, subjects were conducted to a laboratory where their VPA in response to neutral and erotic videos was measured. […] Because of testosterone's delayed effect on enhancing VPA, we expected enhancement of these “erotic” structures in this fMRI study.

[8] = tested on: sexually functional women; experiment: Vaginal responsiveness to erotic films after a single sublingual dose in sexually functional women
[9] = tested on: healthy sexually functional women; conditions: 0.5 mg sublingual
Method: In a recently conducted experiment (not published) in healthy sexually functional women, we used a delayed measurement design in which subjects ingested one dosage of testosterone (0.5 mg sublingual) or placebo and after four hours, underwent fMRI while watching neutral and erotic videos. Hereafter, subjects were conducted to a laboratory where their VPA in response to neutral and erotic videos was measured.

[10] = Plasma level of testosterone after sublingual administration; conditions: single sublingual dose; of short duration

For `CCCc1nc(C)c2c(=O)nc(-c3cc(S(=O)(=O)N4CCN(CC)CC4)ccc3OCC)[nH]n12.Cl` [Vardenafil, piperazine, 1-[[3-(1,4-dihydro-5-methyl-4-oxo-7-propylimidazo[5,1-f][1,2,4]triazin-2-yl)-4-ethoxyphenyl]sulfonyl]-4-ethyl-, monohydrochloride], the “time to peak plasma concentration after administration” value [1] is listed as “about one”, the “sexual desire, genital sensations / subjective sexual arousal compared with placebo” value [2] is listed as “no effect” and the “Vaginal Pulse Amplitude during exposure to erotic stimuli (vaginal arousability) compared with placebo” value (women suffering from FSD [3]; women with FSD, listed as PDE5 inhibitor, monohydrochloride) is listed as “no effect”. For the same compound, the “Vaginal Pulse Amplitude during exposure to erotic stimuli (vaginal arousability) compared with placebo” value (women suffering from FSD [3]; women with FSD, monohydrochloride) was “did not lead to a significant difference” and the “increase in VPA between neutral and erotic films, before medication (trial 1) versus after medication (trial 4)” value (women suffering from FSD [3]; women with FSD) was “insignificant”.

For `CCCc1nn(C)c2c(=O)[nH]c(-c3cc(S(=O)(=O)N4CCN(C)CC4)ccc3OCC)nc12.O=C(O)CC(O)(CC(=O)O)C(=O)O` [sildenafil, 1-[[3-(6,7-dihydro-1-methyl-7-oxo-3-propyl-1Hpyrazolo[4,3-d]pyrimidin-5-yl)-4-ethoxyphenyl]sulfonyl]-4-methylpiperazine citrate], the sexual performance [4] is given as “improves”.

With `CCCCCCCCCCC(=O)O[C@H]1CC[C@H]2[C@@H]3CCC4=CC(=O)CC[C@]4(C)[C@H]3CC[C@]12C` [testosterone undecanoate] the “vaginal responsiveness, first group” value ([5]; 40 mg orally per day, eight weeks, tested in the afternoon) was “enhanced” and the “vaginal responsiveness, another group (unpublished data)” value ([5]; tested in the morning) was “not found”.

With `C[C@]12CC[C@H]3[C@@H](CCC4=CC(=O)CC[C@@]43C)[C@@H]1CC[C@@H]2O` [testosterone, 17-β-hydroxyandrost-4-en-3-one] the “StroopRT (attention for sexual stimuli), not-abused subjects” value (women suffering from FSD [6]; masked condition, decrease = attention for sexual stimuli increases) was “decreases”, the “StroopRT (attentional bias for sexual stimuli), sexually abused subjects” value (women suffering from FSD [6]; masked condition, increase = bias away from sexual stimuli) was “increases” and the “attentional engagement (or withdrawal) for sexual cues, as compared with placebo and/or a PDE5 inhibitor” value (women suffering from FSD [6]; women with FSD) was “increase”. The “activation of septum and left dorsolateral PFC (fMRI)” value [7] was “very significant increase”, the “sexual desire, genital sensations / subjective sexual arousal compared with placebo” value [2] was “no effect” and the “vaginal responsiveness when exposed to visual sexual stimuli” value ([8]; eight sexually functional women, single sublingual dose versus placebo) was “striking increase”. For the same compound, the “time lag between plasma testosterone peak and increase in vaginal responsiveness” value ([8]; sexually functional women, sublingual) was “three to four and a half”, the “VPA to erotic stimuli over trials, sexually abused subjects” value (women suffering from FSD [3]; women with FSD sexually abused during childhood, with or without testosterone) was “no increase” and the “VPA response to the erotic film, not-abused subjects, testosterone versus no-testosterone conditions” value (women suffering from FSD [3]; women with FSD, not abused) was “increases”. The “increase in VPA from before to after measurement, drug conditions containing the steroid versus without the steroid” value (women suffering from FSD [3]; women with FSD, interaction F(1.12)=5.75, p<0.04, pooled steroid conditions) was “significantly higher”, the “Vaginal Pulse Amplitude during exposure to erotic stimuli (vaginal arousability) compared with placebo” value (women suffering from FSD [3]; women with FSD) was “no effect; also recorded: insufficient for a significant increase” and the “increase in VPA between neutral and erotic films, before medication (trial 1) versus after medication (trial 4)” value (women suffering from FSD [3]; women with FSD) was “insignificant”. For the same compound, the “relative change in VPA as compared with the placebo, after fMRI procedure” value [9] was “smaller” and the “plasma levels of testosterone after intake” value [10] was “sharp increase”.
